Laboratory results: patent publication US7355063B2, “Shogaol compound and tyrosinase activity inhibitor comprising the compound” (Toagosei Co., Ltd., priority 2003, dated 2008)

Key:
[1] = tested on: mushroom tyrosinase; assay: Tyrosinase activity inhibition test using L-dopa as substrate (Test Examples 1 and 2, absorbance at 475 nm); assay type: biochemical; details: Table 1
Procedure: Using the compound 7 obtained in Example 2, the compound 13 obtained in Example 5, a mixture of the compound 18 and the compound 19 (existing molar ratio 45:55) obtained in Example 7, and arbutin (manufactured by Tokyo Kasei Kogyo Co., Ltd.) as a comparative control, a tyrosinase activity inhibition test was carried out using L-dopa as a substrate.
The specific test procedures are as follows. • (1) 1.80 ml of a phosphate buffer prepared by dissolving 1.000 g of sodium dihydrogen phosphate and 1.186 g of disodium hydrogen phosphate in 500 ml of distilled water, 1.00 ml of a substrate solution prepared by dissolving 32.7 mg of L-DOPA in 200 ml of distilled water, and 0.10 ml of a test solution prepared by dissolving the test compound in dimethyl sulfoxide were mixed together. • (2) 0.10 ml of an enzyme solution prepared by dissolving 3.0 mg (2400 units; manufactured by Sigma Corporation) of mushroom tyrosinase in 7.0 ml of distilled water was added to the solution prepared in (1), and the whole was stirred for 15 seconds. The resulting solution was maintained at 25° C., and the absorbance at 475 nm was measured one minute and 45 seconds later and 2 minutes and 45 seconds later. • (3) The test operations in the above (1) and (2) were conducted three times for the individual test compounds and blank test (only dimethyl sulfoxide), and the resulting numeric value was inserted in the following calculation formula and a mean value thereof was regarded as a tyrosinase activity inhibition ratio (%). Tyrosinase activity inhibition ratio (%)=[(T^1−T^2)/T^1]×100 • T^1=difference in absorbance of solution with addition of no test compound between 2 minutes and 45 seconds later and one minute and 45 seconds later • T^2=difference in absorbance of solution with addition of test compound was added between 2 minutes and 45 seconds later and one minute and 45 seconds later
Using the compound 40 obtained in Example 24 and arbutin (manufactured by Tokyo Kasei Kogyo Co., Ltd.) as a comparative control, a tyrosinase activity inhibition test was carried out using L-dopa as a substrate. The test procedure was in accordance with Test Example 1.

[2] = target: T1, hyaluronic acid-degrading enzyme (derived from bovine testicles, Type IV-S) (Bos taurus, UniProt Q2YDK3); assay: Hyaluronic acid-degrading enzyme activity inhibition test; assay type: biochemical
T1 construct: derived from bovine testicles manufactured by Sigma Corporation, Type IV-S; purchased Sigma Corporation Type IV-S; host or cells: bovine testicles
T1 sequence (Q2YDK3 36-553): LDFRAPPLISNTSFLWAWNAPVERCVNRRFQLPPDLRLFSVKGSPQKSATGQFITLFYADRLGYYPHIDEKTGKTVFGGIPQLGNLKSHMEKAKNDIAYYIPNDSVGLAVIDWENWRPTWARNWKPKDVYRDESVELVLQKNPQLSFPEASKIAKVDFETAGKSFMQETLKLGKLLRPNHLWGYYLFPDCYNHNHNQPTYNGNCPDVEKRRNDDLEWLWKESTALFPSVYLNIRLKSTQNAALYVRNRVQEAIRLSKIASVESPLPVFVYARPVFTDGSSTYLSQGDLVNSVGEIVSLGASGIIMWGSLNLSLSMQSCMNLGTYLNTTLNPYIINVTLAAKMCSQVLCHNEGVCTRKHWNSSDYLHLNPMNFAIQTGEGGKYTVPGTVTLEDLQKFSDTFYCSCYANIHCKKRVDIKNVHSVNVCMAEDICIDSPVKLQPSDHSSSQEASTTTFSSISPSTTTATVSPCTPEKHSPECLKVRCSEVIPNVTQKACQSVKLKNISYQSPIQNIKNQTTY
Procedure: Using the compound 7 obtained in Example 2, the compound 34, and magnesium ascorbate phosphate as a comparative control, a hyaluronic acid-degrading enzyme activity inhibition test was carried out.
(§1) First, the following solutions shown in A to H were each prepared. • A: 0.1M acetate buffer solution was prepared by dissolving 0.60 g of acetic acid in 100 ml of distilled water. • B: A hyaluronidase solution was prepared by dissolving 7.2 mg of a hyaluronic acid-degrading enzyme (derived from bovine testicles manufactured by Sigma Corporation, Type IV-S) into 3.0 ml of the acetate buffer (prepared in the above A). • C: An activator solution was prepared by dissolving 1.0 mg of compound 48/80 (a hyaluronidase activator manufactured by Sigma Corporation) into 10.0 ml of the acetate buffer (prepared in the above A). • D: A hyaluronic acid solution was prepared by dissolving 12.0 mg of potassium hyaluronate (manufactured by Wako Pure Chemical Industries, Ltd.) into 15.0 ml of the acetate buffer (prepared in the above A). • E: A 0.4N sodium hydroxide aqueous solution was prepared by dissolving 1.60 g of sodium hydroxide into 100 ml of distilled water. • F: After 4.95 g of boric acid was dissolved into 50 ml of distilled water, a 1N sodium hydroxide aqueous solution was added until pH reached 9.1. Subsequently, the whole amount was made 100 ml by adding distilled water. • G: 1.0 g of p-dimethylaminobenzaldehyde, 1.25 ml of 10N hydrochloric acid, and 8.75 ml of acetic acid were mixed. The solution was used after the whole amount was made 100 ml by adding acetic acid immediately before use. • H: Each test compound was dissolved in the acetate buffer (prepared in the above A) so the final test concentration became 0.5 mg/ml and 1.0 mg/ml.
Next, the experimental operation was carried out with the procedures shown in the following (1) to (8).
(1) 0.2 ml of the test compound solution (prepared in the above H) and 0.1 ml of the hyaluronic acid-degrading enzyme solution (prepared in the B) were mixed and the whole was incubated at 37° C. for 20 minutes.
(2) To the above reaction solution was added 0.2 ml of the activator solution (prepared in the above C) and the whole was incubated at 37° C. for 20 minutes.
(3) To the above reaction solution was added 0.5 ml of the hyaluronic acid solution (prepared in the above D), and the whole was incubated at 37° C. for 40 minutes.
(4) To the above reaction solution was added 0.2 ml of the 0.4N sodium hydroxide aqueous solution (prepared in the above E), and the whole was cooled in an ice bath.
(5) To the above reaction solution was added 0.2 ml of the boric acid solution (prepared in the above F), and the whole was heated at 100° C. for 3 minutes.
(6) The above reaction solution was cooled in an ice bath.
(7) To the above reaction solution was added 3.0 ml of the p-dimethylaminobenzaldehyde solution (prepared in the above G), and the whole was incubated at 37° C. for 20 minutes.
(8) Absorbance of the reaction solution at 585 nm was measured using a spectrophotometer.
The above experimental operations were repeated three times, and the resulting numeric value was inserted in the following calculation formula and a mean value thereof was regarded as a hyaluronic acid-degrading enzyme activity inhibition ratio (%). Hyaluronic acid-degrading enzyme activity inhibition ratio (%)=(A−B)/A×100
A=absorbance obtained at the time when operation was carried out with addition of no test compound
B=absorbance obtained at the time when operation was carried out with addition of test compound
The compounds of the invention and magnesium ascorbate phosphate were each used in an enzymatic reaction solution in amounts of 0.1 mg/ml, 0.2 mg/ml, and 0.4 mg/ml, and the results were shown in Table 7 (since the compound 7 was not dissolved in a concentration of 0.4 mg/ml, the test was not carried out).

[3] = Test of scavenging DPPH radical (Test Example 8, 517 nm); details: final concentration of 10 μg/mL; 20 minutes, room temperature
Procedure: Using the compound 7 obtained in Example 2 as well as dl-α-tocopherol (manufactured by Tokyo Kasei Kogyo Co., Ltd.) and butylhydroxytoluene (BHT) as comparative controls, a test of scavenging DDPH (1,1-diphenyl-2-picrylhydrazyl) radical, a stable radical, was carried out.
1 ml of 200 μM DPPH ethanol solution was added to 800 μl of 100 mM Tris-HCl buffer (pH 7.4) and 200 μl of an ethanol solution of the compound 7 (a final concentration of 10 μg/mL), followed by sufficient stirring. After the resulting mixture was allowed to stand in a dark place at room temperature for 20 minutes, the absorbance at 517 nm was measured (absorbance of the test solution)
The compound 13 of the invention as well as dl-α-tocopherol and butylhydroxytoluene as a known radical scavenger were similarly tested.
As a control, 800 μl of 100 mM Tris-HCl buffer (pH 7.4), 200 μl of ethanol, and 1 ml of 200 μM DPPH ethanol solution were used in the same manner as described above and the absorbance was measured (absorbance of the control solution).
With the individual compounds, the same measurement was repeated three times, and the mean value was inserted in the following formula to calculate a DPPH radical-scavenging ratio (%). DPPH radical-scavenging ratio (%)=[1−(absorbance of sample solution/absorbance of control solution)]×100

[4] = Dissolution of test compound for the hyaluronic acid-degrading enzyme test; assay type: physicochemical; details: concentration of 0.4 mg/ml, acetate buffer
Procedure: as §1, with “The solution was used after the whole amount was made 100 ml by adding acetic acid immediately before use. • H: Each test compound was dissolved in the acetate buffer (prepared in the above A) so the final test concentration became 0.5 mg/ml and 1.0 mg/ml.” left out

COc1cc(CCC(=O)/C=C/CCCCCCC(=O)O)ccc1O [Compound 7]
Tyrosinase activity inhibition ratio (%) ([1]; 0.5 mg/mL in enzymatic reaction solution): 59.8% | Tyrosinase activity inhibition ratio (%) ([1]; 1 mg/mL in enzymatic reaction solution): 77.1% | Hyaluronic acid-degrading enzyme activity inhibition ratio (%) ([2]; 0.1 mg/mL): 10.6% | Hyaluronic acid-degrading enzyme activity inhibition ratio (%) ([2]; 0.2 mg/mL): 41.3% | DPPH radical-scavenging ratio (%) [3]: 33.7% | Solubility in the test solution [4]: not dissolved
